Laboratory results reported in publication PMC10041525, “New Dual Inhibitors of Bacterial Topoisomerases with Broad-Spectrum Antibacterial Activity and In Vivo Efficacy against Vancomycin-Intermediate Staphylococcus aureus” (Journal of Medicinal Chemistry, 2023).
Where “and” joins values, the source holds several entries; their conditions need not be identical. Identical values can stand only once. Like-named read-outs stand apart in the source and are kept apart here.

Assays:
[1] = target: T1, hERG potassium ion channel (Homo sapiens, UniProt Q12809); assay: patch-clamp on transfected CHO cells; format: cell-based
T1 construct: expressed in transfected cells; host or cells: CHO cells (stably transfected)
Protocol: (§1) hERG and NaV1.5 inhibition was measured with the patch-clamp method on stably transfected CHO cells according to previously described procedures.[34] […] The normalized hERG/NaV1.5 current is reported as mean ± standard error of the mean (SEM, N = 5–6).

[2] = target: T2, sodium Nav1.5 ion channel (Homo sapiens, UniProt Q14524); assay: patch-clamp on transfected CHO cells; format: cell-based
T2 construct: expressed in transfected cells; host or cells: CHO cells (stably transfected)
Protocol: as §1

[3] = target: T3, hERG channel (Homo sapiens, UniProt Q12809); assay: whole-cell patch-clamp on HEK293 cells; format: cell-based; conditions: 50 µM 7a, mean ± SD
T3 construct: expressed in transfected cells; host or cells: HEK293 cells stably expressing the channel
Source text: hERG inhibition was additionally determined in whole-cell patch-clamp experiments on HEK293 cells stably expressing the channel, as previously described.[55]

[4] = in vivo pharmacokinetics, IV; parameters: species or system male CD-1 mice
Protocol: The in vivo pharmacokinetic studies of 7a were performed by Selvita d.o.o. (Zagreb, Croatia) in male CD-1 mice (Charles River). The test compound was administered via intravenous (iv) bolus at a dose of 1 mg/kg (dose volume 5 mL/kg). Blood samples were collected from the tail vein 0.05, 0.25, 0.5, 1.0, 2.0, 4.0, 8.0, and 24 h after administration from three animals per time point. Each animal was sampled 2–4 times throughout the time course of collection (six animals were used totally per each route). Blood samples were centrifuged at 1560g for 10 min at 4 °C. The samples were analyzed by LC–MS/MS. Prior to analysis, the samples were prepared by protein precipitation {20 μL of plasma + 20 μL of water + 240 μL of extraction solvent [acetonitrile/methanol (2:1 v/v) with 100 ng/mL diclofenac (IS)]}, and the extracts were diluted with water (1:3 v/v).
For LC–MS/MS analysis, a Shimadzu prominence HPLC system was used (HPLC pump: LC30AD, autosampler: SIL30ACMP, column oven: CTO30A) connected to an Applied Biosystems mass spectrometer (QTRAP 5500) operating in the positive TurboIonSpray mode. For separation, a Waters Acquity UPLC BEH C18 1.7 μm, 2.1 × 50 mm (Waters, Milford, MA) column was used, with an injection volume of 1 or 2 μL and a flow rate of 0.5 mL/min. The mobile phase consisted of 0.1% formic acid in water (solvent A) and 0.1% formic acid in acetonitrile (solvent B). Gradient: 0–0.05 min, 5% B; 0.05–0.80 min, 5–85% B; 0.80–1.00, 85% B; 1.00–1.01, 85–95% B; 1.01–1.50, 95% B; 1.50–1.51, 95–5% B, 1.51–2.00, 5% B.
Pharmacokinetic analysis was performed using WinNonlin Phoenix software (Certara, version 8.3) from the mean animal plasma concentration per group, per time point, non-compartmental analysis, and the target dose.

[5] = system: S. aureus ATCC 700699 (VISA); format: in vivo, female CD-1 mice; conditions: for Change in log10CFU/gr of thigh from 2 hour control / Change in log10CFU/gr of thigh from 26 hours control / Average log10CFU/gr of thigh: IV; for Average log10CFU/gr of thigh: 26 h
Protocol: The neutropenic mouse thigh infection model study was performed by NeoSome Life Sciences, LLC (Lexington, MA, USA) according to NeoSome Institutional Animal Care and Use Committee (IACUC) policies and guidelines as well as NIH’s Office of Laboratory Animal Welfare (OLAW) standards.
Neutropenic mouse thigh infection experiments were performed on female CD-1 mice (Charles River Laboratories, USA). To induce neutropenia, mice received two doses of cyclophosphamide on days −4 and −1 with 150 and 100 mg/kg delivered intraperitoneally (IP), respectively. The inoculum of the testing strain, S. aureus ATCC 700699-P1 (VISA), was prepared from overnight agar plate cultures. To prepare bacterial inoculums, a portion of the plate was resuspended in sterile saline and adjusted to an OD of 0.12 at 625 nm. Next, the resulted bacterial suspension was further diluted to reach an infecting inoculum of 6.0 × 10^5 cfu per each mouse. Plate counts of the inoculum were also performed in each case to confirm the inoculum concentration, and the actual inoculum size was 7.25 × 10^5 cfu/mouse. Mice were inoculated with 100 μL of the prepared bacterial suspension via an intramuscular injection into the right rear thigh. […] The test agent was then dosed via IV administration, to ensure optimal distribution, at 2, 10, and 18 h post-infection. Beginning at 2 h, post-infection mice were dosed with either test article or positive control antibiotic. Mice receiving test agents were dosed intravenously at 10 mL/kg. Linezolid was delivered as a SC dose to ensure optimized exposure, distribution, and efficacy. Four animals were dosed per group. One group of four mice was euthanized at the initiation of therapy (t = 2 h) and cfus determined. All remaining mice were euthanized at 26 h post-infection. At termination, thighs were aseptically excised, weighed, and homogenized to a uniform consistency in 2 mL of sterile saline. The homogenate was serially diluted and plated on bacterial growth media. The cfus were enumerated after overnight incubation.

[6] = target: S. aureus topo IV (Staphylococcus aureus, UniProt P0C1S7)
Protocol: In all experiments, the activity of the
enzymes was determined prior to the testing of the compound and 1 unit (U) was defined as the
amount of enzyme required to just fully supercoil or decatenate the substrate. This amount of
enzyme was initially used in determination of control inhibitor activity. These experiments were
performed in duplicate. […] The final DMSO
concentration was 1% for all assays. All measurements were performed in quadruplicates. The
condition for each reaction were as follows:
− S. aureus gyrase supercoiling assay
1 U of S. aureus gyrase was incubated with 0.5 µg of relaxed pBR322 DNA in a 30 µL reaction at
magnesium acetate, 10 mM DTT, 2 mM ATP, 500 mM potassium glutamate and 0.05 mg/mL
− S. aureus topo IV decatenation assay
1 U of S. aureus topo IV was incubated with 20 µg kDNA in a 30 µL reaction at 37 °C for 30
mM ATP, 350 mM potassium glutamate and 0.05 mg/mL albumin.
− A. baumannii gyrase supercoiling assay
1 U of A. baumannii gyrase was incubated with 0.5 µg of relaxed pBR322 DNA in a 30 µL reaction
blue), before being loaded on a 1.0% TAE gel run at 80V for 2 hours. Bands were visualised by
ethidium bromide staining for 20 minutes and destaining for 20 minutes. Gels were scanned using
documentation equipment (GeneGenius, Syngene, Cambridge, UK) and % inhibition levels were
measured by determining the relative fluorescence of the supercoiled band using gel scanning
software. […]

[7] = system: Chinese hamster ovary K1 cells; assay: in vitro micronucleus test
[8] = male, CD-1, mouse, plasma, IV 1 mg/kg

T1 sequence (Q12809 whole entry): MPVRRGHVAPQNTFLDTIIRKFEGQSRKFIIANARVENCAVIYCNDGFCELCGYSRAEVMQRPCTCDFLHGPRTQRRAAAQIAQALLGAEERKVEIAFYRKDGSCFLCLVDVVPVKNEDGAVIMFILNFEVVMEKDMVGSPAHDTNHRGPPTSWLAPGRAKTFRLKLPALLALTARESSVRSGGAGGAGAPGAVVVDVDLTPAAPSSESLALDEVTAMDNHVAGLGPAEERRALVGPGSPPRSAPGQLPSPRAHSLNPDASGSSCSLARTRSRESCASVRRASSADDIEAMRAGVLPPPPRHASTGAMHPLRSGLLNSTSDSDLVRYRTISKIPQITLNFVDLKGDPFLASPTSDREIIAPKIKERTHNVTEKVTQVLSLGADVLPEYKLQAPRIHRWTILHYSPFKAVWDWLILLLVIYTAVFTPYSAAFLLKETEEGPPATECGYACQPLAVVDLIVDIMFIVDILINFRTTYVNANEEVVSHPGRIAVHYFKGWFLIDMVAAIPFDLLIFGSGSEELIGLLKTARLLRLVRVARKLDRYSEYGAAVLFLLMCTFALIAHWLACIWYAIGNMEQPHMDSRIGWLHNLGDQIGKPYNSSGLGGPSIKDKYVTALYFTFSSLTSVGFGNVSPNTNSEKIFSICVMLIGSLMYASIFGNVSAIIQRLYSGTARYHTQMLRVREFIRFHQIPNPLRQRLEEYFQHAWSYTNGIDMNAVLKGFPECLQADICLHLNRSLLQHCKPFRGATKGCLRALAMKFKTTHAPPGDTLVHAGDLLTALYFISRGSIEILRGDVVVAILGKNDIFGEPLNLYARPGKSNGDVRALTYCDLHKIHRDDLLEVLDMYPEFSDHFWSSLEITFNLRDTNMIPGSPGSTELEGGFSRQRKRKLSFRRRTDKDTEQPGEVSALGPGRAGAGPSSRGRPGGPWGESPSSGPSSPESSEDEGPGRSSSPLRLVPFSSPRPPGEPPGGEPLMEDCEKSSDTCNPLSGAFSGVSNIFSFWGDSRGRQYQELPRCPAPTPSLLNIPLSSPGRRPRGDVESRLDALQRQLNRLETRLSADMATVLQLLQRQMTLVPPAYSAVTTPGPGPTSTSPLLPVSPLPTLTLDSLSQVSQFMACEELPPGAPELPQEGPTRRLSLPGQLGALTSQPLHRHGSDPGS
T2 sequence (Q14524 whole entry): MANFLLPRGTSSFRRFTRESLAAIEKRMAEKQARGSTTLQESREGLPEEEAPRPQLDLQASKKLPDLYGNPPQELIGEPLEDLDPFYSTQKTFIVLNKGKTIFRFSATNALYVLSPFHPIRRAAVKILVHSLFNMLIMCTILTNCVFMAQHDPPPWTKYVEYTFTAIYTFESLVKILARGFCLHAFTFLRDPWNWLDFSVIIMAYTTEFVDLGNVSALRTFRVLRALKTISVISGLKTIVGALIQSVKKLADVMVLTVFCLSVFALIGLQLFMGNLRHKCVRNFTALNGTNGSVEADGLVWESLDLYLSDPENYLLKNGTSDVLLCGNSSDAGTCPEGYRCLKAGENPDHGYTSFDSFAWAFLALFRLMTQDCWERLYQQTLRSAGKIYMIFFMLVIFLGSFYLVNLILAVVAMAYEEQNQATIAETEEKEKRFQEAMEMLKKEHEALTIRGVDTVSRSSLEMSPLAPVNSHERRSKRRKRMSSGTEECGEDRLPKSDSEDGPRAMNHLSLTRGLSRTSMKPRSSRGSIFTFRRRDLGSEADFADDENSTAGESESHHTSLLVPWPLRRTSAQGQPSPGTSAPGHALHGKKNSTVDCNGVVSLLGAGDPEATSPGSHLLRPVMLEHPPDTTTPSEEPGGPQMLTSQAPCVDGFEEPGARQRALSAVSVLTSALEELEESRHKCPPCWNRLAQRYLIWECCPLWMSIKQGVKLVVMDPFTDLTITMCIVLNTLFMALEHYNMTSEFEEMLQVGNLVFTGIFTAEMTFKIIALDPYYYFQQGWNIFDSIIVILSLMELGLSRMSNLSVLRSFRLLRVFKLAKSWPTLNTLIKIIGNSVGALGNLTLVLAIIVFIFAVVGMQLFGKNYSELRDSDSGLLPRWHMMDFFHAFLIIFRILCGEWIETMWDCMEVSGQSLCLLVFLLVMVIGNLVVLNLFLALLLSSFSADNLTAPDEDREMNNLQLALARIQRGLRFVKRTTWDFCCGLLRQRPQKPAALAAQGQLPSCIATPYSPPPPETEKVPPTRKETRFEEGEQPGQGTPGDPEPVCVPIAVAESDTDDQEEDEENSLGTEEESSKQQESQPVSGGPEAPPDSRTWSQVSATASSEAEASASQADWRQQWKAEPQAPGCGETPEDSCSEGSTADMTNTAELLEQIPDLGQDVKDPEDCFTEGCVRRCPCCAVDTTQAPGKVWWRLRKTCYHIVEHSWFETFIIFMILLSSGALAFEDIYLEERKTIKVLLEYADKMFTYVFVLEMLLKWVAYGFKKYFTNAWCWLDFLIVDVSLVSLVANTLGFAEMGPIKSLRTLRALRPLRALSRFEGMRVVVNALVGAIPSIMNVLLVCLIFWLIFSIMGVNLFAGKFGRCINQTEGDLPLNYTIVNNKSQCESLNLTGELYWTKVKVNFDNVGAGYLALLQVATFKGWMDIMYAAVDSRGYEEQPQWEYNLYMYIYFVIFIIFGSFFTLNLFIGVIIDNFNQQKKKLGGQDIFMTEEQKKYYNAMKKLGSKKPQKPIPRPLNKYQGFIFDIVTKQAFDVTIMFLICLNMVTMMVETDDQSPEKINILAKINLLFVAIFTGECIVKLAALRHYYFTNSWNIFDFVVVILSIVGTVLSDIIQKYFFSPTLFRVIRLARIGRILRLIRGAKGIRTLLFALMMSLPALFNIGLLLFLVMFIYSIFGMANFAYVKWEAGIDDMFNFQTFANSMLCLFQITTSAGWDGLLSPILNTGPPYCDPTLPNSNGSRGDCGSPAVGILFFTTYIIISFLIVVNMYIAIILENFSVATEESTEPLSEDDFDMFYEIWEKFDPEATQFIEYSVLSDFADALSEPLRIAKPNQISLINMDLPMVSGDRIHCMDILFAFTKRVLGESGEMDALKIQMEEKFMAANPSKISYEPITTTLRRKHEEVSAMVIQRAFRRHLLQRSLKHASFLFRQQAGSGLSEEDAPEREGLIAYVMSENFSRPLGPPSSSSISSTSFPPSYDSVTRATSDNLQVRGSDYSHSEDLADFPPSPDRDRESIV
T3 sequence (Q12809 whole entry): as the sequence (Q12809 whole entry) above

SMILES: Cc1[nH]c(C(=O)Nc2nc3c(N4CCOCC4)cc(C(=O)O)cc3s2)c(Cl)c1Cl [7a, 2-(3,4-Dichloro-5-methyl-1H-pyrrole-2-carboxamido)-4-morpholinobenzo[d]thiazole-6-carboxylic Acid]
- inhibition of hERG ([1]; 50 µM): no significant inhibition
- hERG current fraction (normalized to neg. control) ([1]; 50 µM 7a, mean ± SEM): 1.01 ± 0.02
- inhibition of Nav1.5 ([2]; 10 µM): no significant inhibition
- Nav1.5 current fraction (normalized to neg. control) ([2]; 10 µM 7a, mean ± SEM): 0.97 ± 0.03
- hERG inhibition (current reduction) [3]: 0 ± 12%
- plasma clearance as % of liver blood flow ([4]; assuming 90 mL/min/kg): 61%
- AUC(0-inf) at 24 h [4, 8]: 304 ng·h/mL
- C0 at 24 h [4, 8]: 913 ng/mL
- clearance at 24 h [4, 8]: 54.8 mL/min/kg
- half-life at 24 h [4, 8]: 60 min
- AUC(0-t) at 24 h ([4]; male, CD-1, mouse, plasma, IV 1 mg/kg, read-out: AUC0–24h): 303 ng·h/mL
- Vd at 24 h ([4]; male, CD-1, mouse, plasma, IV 1 mg/kg, read-out: Vss): 2.3 L/kg
- CFU/ g of thigh, single animals ([5]; 10 mg/kg): 1.82E+08 and 2.23E+08 and 2.51E+08 and 1.42E+08
- log CFU, single animals ([5]; 10 mg/kg): 8.26 and 8.35 and 8.40 and 8.15
- Change in log10CFU/gr of thigh from 2 hour control ([5]; 10 mg/kg TID): 2.00
- Change in log10CFU/gr of thigh from 26 hours control ([5]; 10 mg/kg TID): 0.19
- Average log10CFU/gr of thigh ([5]; 10 mg/kg TID): 8.29
- CFU/ g of thigh, single animals ([5]; 25 mg/kg): 4.64E+05 and 4.16E+06 and 1.83E+07 and 9.23E+06
- log CFU, single animals ([5]; 25 mg/kg): 5.67 and 6.62 and 7.26 and 6.97
- reduction compared to 26 h controls ([5]; 25 mg/kg IV): 1.47 log10 cfu
- Change in log10CFU/gr of thigh from 2 hour control ([5]; 25 mg/kg TID): 0.33
- Change in log10CFU/gr of thigh from 26 hours control ([5]; 25 mg/kg TID): -1.47
- Average log10CFU/gr of thigh ([5]; 25 mg/kg TID): 6.63
- CFU/ g of thigh, single animals ([5]; 50 mg/kg): 1.72E+05 and 1.68E+05 and 8.81E+05 and 8.82E+04
- log CFU, single animals ([5]; 50 mg/kg): 5.24 and 5.23 and 5.95 and 4.95
- reduction compared to 26 h controls ([5]; 50 mg/kg IV): 2.76 log10 cfu
- reduction compared to 2 hour infection controls ([5]; 50 mg/kg IV (TID)): 0.96 log10 cfu
- Change in log10CFU/gr of thigh from 2 hour control ([5]; 50 mg/kg TID): -0.96
- Change in log10CFU/gr of thigh from 26 hours control ([5]; 50 mg/kg TID): -2.76
- Average log10CFU/gr of thigh ([5]; 50 mg/kg TID): 5.34
- IC50 [6]: 8 ± 1.2 nM
- % Micronuclei ([7]; with S9, 25 µM): 2.7%
- No. binucleate cells ([7]; with S9, 25 µM): 1707
- % Cytostasis ([7]; with S9, 50 µM): 1.4%
- % Micronuclei ([7]; with S9, 50 µM): 4.5%
- No. binucleate cells ([7]; with S9, 50 µM): 1296
- % Cytostasis ([7]; with S9, 100 µM): tox
- genotoxic concentration (no genotoxicity up to) ([7]; with S9 activation): > 50 µM
- % Micronuclei ([7]; without S9, 6.25 µM): 2.8%
- No. binucleate cells ([7]; without S9, 6.25 µM): 3160
- % Micronuclei ([7]; without S9, 25 µM): 2.5%
- No. binucleate cells ([7]; without S9, 25 µM): 2644
- % Cytostasis ([7]; without S9, 50 µM): 0.1%
- % Micronuclei ([7]; without S9, 50 µM): 4.4%
- No. binucleate cells ([7]; without S9, 50 µM): 1687
- % Cytostasis ([7]; without S9, 100 µM): 40.8%
- % Micronuclei ([7]; without S9, 100 µM): 7%
- No. binucleate cells ([7]; without S9, 100 µM): 642
- % Micronuclei ([7]; without S9, […]): 2.7%
- genotoxic concentration (no genotoxicity up to) ([7]; without metabolic activation): > 100 µM
